Consider one molecule from patent publication US20240216369A1, “THE USE OF A SPLICING MODULATOR FOR A TREATMENT SLOWING PROGRESSION OF HUNTINGTON'S DISEASE” (Novartis AG, priority 2019, published 2024).

The series can be described thus: First-in-human proof of concept study of oral branaplam in infants with Type 1 SMA: PK and safety. It counts as in vivo. The source says:
• Principle set-up of a pediatric ACAT/PBPK model in GastroPlus™ software including physico-chemical parameters, physiological parameters, and formulation factors. The ACAT model was linked to a full PBPK model in which tissue-to-plasma concentration ratios were estimated via in silico method provided by GastroPlus™ software. • Estimation of the clearance (CL) using plasma concentrations of branaplam from an open-label multi-part first-in-human proof of concept study of oral branaplam, Part 1 only. […] The branaplam doses were escalated in subsequent cohorts until MTD was determined or when PK results confirmed that the MTD could not be reached due to a potential pharmacokinetic exposure plateau at higher doses. […]
The aim of part one of this study was to determine the safety and tolerability of ascending weekly doses and to estimate the maximum tolerated dose (MTD) of oral/enteral branaplam (see Example 3) in infants with Type 1 SMA. All patients had exactly 2 copies of the SMN2 gene, as determined e.g. by quantitative real time PCR or droplet digital PCR.
Patients were dosed once weekly with branaplam. The branaplam doses were escalated in subsequent cohorts until MTD was determined or when PK results confirmed that the MTD could not be reached due to a potential pharmacokinetic exposure plateau at higher doses. […]

For the molecule `CC1(C)CC(Oc2ccc(-c3ccc(-c4cn[nH]c4)cc3O)nn2)CC(C)(C)N1` [Compound 18, 5-(1H-pyrazol-4-yl)-2-(6-((2,2,6,6-tetramethylpiperidin-4-yl)oxy)pyridazin-3-yl)phenol], the Tmax (human, plasma, Type 1 SMA patients, oral, nominal dose range 6 to 60 mg/m^2, read-out: median time of maximum concentration (Tmax) in plasma) was 2.97 to 4 h. Further, where the note is “infants with Type 1 SMA, once weekly 6 to 60 mg/m^2, exposure 4-33 months”, the dose-limiting toxicity result is reported as “No dose-limiting toxicity was observed”.
